Where “and” joins values, the source holds several entries; their conditions need not be identical. Equal entries are not always repeated. Inconclusive results and toxic doses are left out. No stated cut-off is given here; in the data, active means T/C of 150% or more; inactive means T/C below 125%.
Test system: L1210 leukemia ip in BDF1 mice, survival T/C
Test: NCI In Vivo Anticancer Drug Screen. Data for tumor model L1210 Leukemia (intraperitoneal) in B6D2F1 (BDF1) mice
Settings: endpoint: mean survival time, higher = longer survival
Outline: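 Mice bearing the transplanted tumor received compound or vehicle. Survival of the treated group was divided by that of the vehicle-treated control group to give the ratio.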

[1] = dose: 100.0 mg/kg/injection, schedule: Q01DX001 (ip), vehicle: saline with Tween-80
[2] = dose: 200.0 mg/kg/injection, schedule: Q01DX001 (ip), vehicle: saline with Tween-80
[3] = dose: 400.0 mg/kg/injection, schedule: Q01DX001 (ip), vehicle: saline with Tween-80
[4] = dose: 100.0 mg/kg/injection, schedule: Q01DX009 (ip), vehicle: Klucel (hydroxypropylcellulose) (HPC)
[5] = dose: 100.0 mg/kg/injection, schedule: Q04DX003 (ip), vehicle: Klucel (hydroxypropylcellulose) (HPC)
[6] = dose: 200.0 mg/kg/injection, schedule: Q01DX009 (ip), vehicle: Klucel (hydroxypropylcellulose) (HPC)
[7] = dose: 200.0 mg/kg/injection, schedule: Q04DX003 (ip), vehicle: Klucel (hydroxypropylcellulose) (HPC)
[8] = dose: 400.0 mg/kg/injection, schedule: Q01DX009 (ip), vehicle: Klucel (hydroxypropylcellulose) (HPC)
[9] = dose: 400.0 mg/kg/injection, schedule: Q04DX003 (ip), vehicle: Klucel (hydroxypropylcellulose) (HPC)
[10] = dose: 50.0 mg/kg/injection, schedule: Q01DX001 (ip), vehicle: carboxymethylcellulose (CMC)
[11] = dose: 100.0 mg/kg/injection, schedule: Q01DX001 (ip), vehicle: carboxymethylcellulose (CMC)
[12] = dose: 200.0 mg/kg/injection, schedule: Q01DX001 (ip), vehicle: carboxymethylcellulose (CMC)
[13] = dose: 400.0 mg/kg/injection, schedule: Q01DX001 (ip), vehicle: carboxymethylcellulose (CMC)
[14] = dose: 400.0 mg/kg/injection, schedule: Q01DX009 (ip), vehicle: saline
[15] = dose: 100.0 mg/kg/injection, schedule: Q04DX003 (ip), vehicle: saline with Tween-80
[16] = dose: 200.0 mg/kg/injection, schedule: Q04DX003 (ip), vehicle: saline with Tween-80

Measured: T/C

O=P(N1CCCCC1)(N1CC1)N1CC1
active: dose: 2.0 mg/kg/injection, schedule: Q01DX Z (ip), vehicle: saline 158 % of control | dose: 6.0 mg/kg/injection, schedule: Q01DX Z (ip), vehicle: saline 202 % of control | dose: 8.0 mg/kg/injection, schedule: Q01DX011 (ip), vehicle: saline 150 % of control | dose: 40.0 mg/kg/injection, schedule: Q01DX001 (ip), vehicle: saline 169 % of control
inactive: dose: 0.5 mg/kg/injection, schedule: Q01DX Z (ip), vehicle: saline 117 % of control | dose: 3.8 mg/kg/injection, schedule: Q01DX015 (ip), vehicle: saline 106 % of control | dose: 4.0 mg/kg/injection, schedule: Q01DX011 (ip), vehicle: saline 113 % of control | dose: 5.0 mg/kg/injection, schedule: Q01DX001 (ip), vehicle: saline 107 % of control | dose: 7.5 mg/kg/injection, schedule: Q01DX015 (ip), vehicle: saline 124 % of control | dose: 9.0 mg/kg/injection, schedule: Q01DX Z (ip), vehicle: saline 94 % of control | dose: 10.0 mg/kg/injection, schedule: Q01DX001 (ip), vehicle: saline 100 % of control | dose: 13.5 mg/kg/injection, schedule: Q01DX Z (ip), vehicle: saline 94 % of control | dose: 15.0 mg/kg/injection, schedule: Q01DX011 (ip), vehicle: saline 95 % of control | dose: 20.0 mg/kg/injection, schedule: Q01DX001 (ip), vehicle: saline 122 % of control | dose: 21.0 mg/kg/injection, schedule: Q01DX Z (ip), vehicle: saline 114 % of control | dose: 30.0 mg/kg/injection, schedule: Q01DX015 (ip), vehicle: saline 106 % of control

Nc1nc(N)c2nnsc2n1
inactive: [1] 101 % of control | [2] 96 % of control | [3] 90 % of control

Cc1ccc(S(=O)(=O)N/N=C2\C(=O)C3CCC2C3Cl)cc1 (centres undefined)
inactive: dose: 75.0 mg/kg/injection, schedule: Q01DX001 (ip), vehicle: other 89 % of control | dose: 150.0 mg/kg/injection, schedule: Q01DX001 (ip), vehicle: other 92 % of control

CC(=O)Nc1cc([N+](=O)[O-])ccc1CC(O)c1ccccc1 (centres undefined)
inactive: [4] 109 % of control | [5] 97 % of control | [6] 111 % of control | [7] 97 % of control | [8] 94 % of control | [9] 100 % of control

NC(=O)NC1c2ccccc2-c2ccccc21
inactive: [10] 93 % of control | [11] 93 % of control | [12] 93 % of control | [13] 93 % of control

CCCCN(CCCC)CC(O)c1cc2ccc(Cl)cc2nc1-c1ccc(Cl)cc1 (centres undefined)
inactive: [5] 100 % of control | [7] 96 % of control | [9] 102 % of control

O=C(NO)c1ccccc1O
inactive: dose: 85.0 mg/kg/injection, schedule: Q03HX032 (ip), vehicle: other 97 % of control | [4] 104 % of control | dose: 100.0 mg/kg/injection, schedule: Q04DX002 (ip), vehicle: carboxymethylcellulose (CMC) 98 % of control and 108 % of control | dose: 100.0 mg/kg/injection, schedule: Q04DX003 (ip), vehicle: carboxymethylcellulose (CMC) 101 % of control and 118 % of control | dose: 130.0 mg/kg/injection, schedule: Q03HX032 (ip), vehicle: other 102 % of control | [6] 112 % of control | dose: 200.0 mg/kg/injection, schedule: Q01DX015 (ip), vehicle: other 105 % of control | dose: 200.0 mg/kg/injection, schedule: Q03HX032 (ip), vehicle: other 105 % of control | dose: 200.0 mg/kg/injection, schedule: Q04DX002 (ip), vehicle: carboxymethylcellulose (CMC) 98 % of control and 108 % of control | dose: 200.0 mg/kg/injection, schedule: Q04DX003 (ip), vehicle: carboxymethylcellulose (CMC) 99 % of control and 103 % of control | dose: 266.0 mg/kg/injection, schedule: Q01DX009 (ip), vehicle: saline 97 % of control | dose: 300.0 mg/kg/injection, schedule: Q01DX015 (ip), vehicle: other 93 % of control | dose: 300.0 mg/kg/injection, schedule: Q03HX032 (ip), vehicle: other 121 % of control | [8] 105 % of control | [14] 97 % of control | dose: 400.0 mg/kg/injection, schedule: Q04DX002 (ip), vehicle: carboxymethylcellulose (CMC) 96 % of control and 104 % of control | dose: 400.0 mg/kg/injection, schedule: Q04DX003 (ip), vehicle: carboxymethylcellulose (CMC) 105 % of control | dose: 450.0 mg/kg/injection, schedule: Q01DX015 (ip), vehicle: other 108 % of control | dose: 600.0 mg/kg/injection, schedule: Q01DX009 (ip), vehicle: saline 104 % of control | dose: 670.0 mg/kg/injection, schedule: Q01DX015 (ip), vehicle: other 86 % of control | dose: 900.0 mg/kg/injection, schedule: Q01DX009 (ip), vehicle: saline 104 % of control
active: dose: 450.0 mg/kg/injection, schedule: Q03HX032 (ip), vehicle: other 208 % of control

CCOC(=O)C(Cc1c[nH]c2ccccc12)NC(=O)/C=C/N(CCCl)CCCl (centres undefined)
inactive: dose: 10.0 mg/kg/injection, schedule: Q01DX Z (ip), vehicle: other 91 % of control | dose: 20.0 mg/kg/injection, schedule: Q01DX Z (ip), vehicle: other 92 % of control | dose: 40.0 mg/kg/injection, schedule: Q01DX Z (ip), vehicle: other 94 % of control | dose: 80.0 mg/kg/injection, schedule: Q01DX Z (ip), vehicle: other 89 % of control

CN(C)C(=O)CCl
inactive: dose: 100.0 mg/kg/injection, schedule: Q01DX009 (ip), vehicle: saline 96 % of control | dose: 200.0 mg/kg/injection, schedule: Q01DX009 (ip), vehicle: saline 98 % of control | [14] 104 % of control

O=C1c2ccccc2C(=O)N1Cc1nc(=S)[nH][nH]1
inactive: [1] 100 % of control | [2] 97 % of control | [3] 97 % of control

CCC1([N+](=O)[O-])COP(=O)(NCc2cccnc2)OC1 (centres undefined)
inactive: [11] 92 % of control | [12] 101 % of control | [13] 116 % of control

CC(OC(=O)c1ccccc1)c1ccccc1 (centres undefined)
inactive: [4] 94 % of control | [5] 101 % of control | [6] 100 % of control | [7] 103 % of control | [8] 96 % of control | [9] 101 % of control

Cc1c(CC(Cl)Cl)cc(-c2ccccc2)c2ccccc12
inactive: [5] 96 % of control | [7] 92 % of control | [9] 100 % of control

O=C(NC(CO)CCCO)c1ccc([N+](=O)[O-])cc1 (centres undefined)
inactive: [5] 108 % of control | [7] 86 % of control | [9] 96 % of control

O=C(Nc1cccc(C(F)(F)F)c1)N(Cc1ccccc1)c1ccccc1
inactive: [4] 109 % of control | [6] 95 % of control | [8] 96 % of control

Brc1ccc(Br)c(-c2nnc(-c3cccc4ccccc34)o2)c1
inactive: dose: 100.0 mg/kg/injection, schedule: Q01DX001 (ip), vehicle: saline 86 % of control

COC(=O)C(O)(C#CC(C)C)c1ccccc1 (centres undefined)
inactive: dose: 100.0 mg/kg/injection, schedule: Q01DX001 (ip), vehicle: other 107 % of control | dose: 200.0 mg/kg/injection, schedule: Q01DX001 (ip), vehicle: other 100 % of control | dose: 400.0 mg/kg/injection, schedule: Q01DX001 (ip), vehicle: other 94 % of control

CCC(c1ccc(Cl)cc1)N1CCC2(CC1)C(=O)NCN2c1ccccc1 (centres undefined)
inactive: dose: 100.0 mg/kg/injection, schedule: Q01DX009 (ip), vehicle: saline with Tween-80 94 % of control | [15] 102 % of control | dose: 200.0 mg/kg/injection, schedule: Q01DX009 (ip), vehicle: saline with Tween-80 96 % of control | [16] 104 % of control | dose: 400.0 mg/kg/injection, schedule: Q01DX009 (ip), vehicle: saline with Tween-80 89 % of control | dose: 400.0 mg/kg/injection, schedule: Q04DX003 (ip), vehicle: saline with Tween-80 91 % of control

CCCCCCCCCCCCCCCCNCCCN
inactive: [15] 98 % of control | [16] 96 % of control

CSc1ncnc2c1ncn2C1CCCC1
inactive: [10] 116 % of control | [11] 104 % of control | [12] 107 % of control

— PubChem BioAssay AID248 (DTP/NCI, 2004)
